Where two headings read alike, the source gives them in different places. Residues, ends and D or L forms follow the SMILES beside them.
B1: TKPCQSDKDCKKFACRKPKVPKCINGFCKCVRAPKKVEPTKPCQSDKDCKKFACRKPKVPKCINGFCKCVR (protein)
chain: TKPCQSDKDCKKFACRKPKVPKCINGFCKCVRAPKKVEPTKPCQSDKDCKKFACRKPKVPKCINGFCKCVR
notes: two NCR13 monomers linked in tandem by the APKKVEP spacer peptide from MtDef5 defensin, 71 amino acids

Experiments:
Fusarium oxysporum = format: cell-based

| Molecule | Fusarium graminearum MIC (Fusarium graminearum) [µM] | IC50 (Fusarium graminearum) [µM] | Botrytis cinerea MIC (Botrytis cinerea) [µM] | IC50 (Botrytis cinerea) [µM] | IC50 (Phytophthora capsici) [µM] | Phytophthora capsici MIC (Phytophthora capsici) [µM] | Alternaria brassicicola MIC (Alternaria brassicicola) [µM] | IC50 (Alternaria brassicicola) [µM] | Fusarium oxysporum MIC (Fusarium oxysporum) [µM] | IC50 (Fusarium oxysporum) [µM] | other results |
| --- | --- | --- | --- | --- | --- | --- | --- | --- | --- | --- | --- |
| CSCC[C@H](NC(=O)[C@H](CCCCN)NC(=O)[C@@H](N)CCCCN)C(=O)N1CCC[C@H]1C(=O)N[C@@H](CS)C(=O)N[C@@H](CCCCN)C(=O)N[C@@H](CCCNC(=N)N)C(=O)N[C@@H](CCCNC(=N)N)C(=O)N[C@@H](CCCNC(=N)N)C(=O)N[C@@H](CC(=O)O)C(=O)N[C@@H](CS)C(=O)N[C@@H](CCCCN)C(=O)N[C@H](C(=O)N[C@@H](Cc1ccc(O)cc1)C(=O)N1CCC[C@H]1C(=O)N[C@@H](CS)C(=O)N1CCC[C@H]1C(=O)N[C@@H](Cc1c[nH]cn1)C(=O)N1CCC[C@H]1C(=O)N[C@@H](CCCCN)C(=O)N[C@H](C(=O)N[C@@H](CCCNC(=N)N)C(=O)N[C@@H](CC(=O)O)C(=O)N[C@@H](CS)C(=O)N[C@H](C(=O)N[C@@H](CCCCN)C(=O)NCC(=O)N[C@@H](Cc1ccc(O)cc1)C(=O)N[C@@H](CS)C(=O)N[C@@H](CCCCN)C(=O)N[C@@H](CS)C(=O)N[C@H](C(=O)N[C@H](C(=O)N[C@@H](CCCNC(=N)N)C(=O)O)C(C)C)C(C)C)C(C)C)C(C)C)[C@@H](C)O [NCR7-S] (H-KKMPCKRRRDCKTYPCPHPKVRDCVKGYCKCVVR-OH; N-terminus and C-terminus assumed) | 6 | 4 | 6 | 3 | > 6 | >6 | 6 | 4 | – | – | – |
| CC[C@H](C)[C@H](NC(=O)[C@H](CS)NC(=O)[C@H](CCCCN)NC(=O)[C@@H]1CCCN1C(=O)[C@@H](NC(=O)[C@H](CCCCN)NC(=O)[C@@H]1CCCN1C(=O)[C@H](CCCCN)NC(=O)[C@H](CCCNC(=N)N)NC(=O)[C@H](CS)NC(=O)[C@H](C)NC(=O)[C@H](Cc1ccccc1)NC(=O)[C@H](CCCCN)NC(=O)[C@H](CCCCN)NC(=O)[C@H](CS)NC(=O)[C@H](CC(=O)O)NC(=O)[C@H](CCCCN)NC(=O)[C@H](CC(=O)O)NC(=O)[C@H](CO)NC(=O)[C@H](CCC(N)=O)NC(=O)[C@H](CS)NC(=O)[C@@H]1CCCN1C(=O)[C@H](CCCCN)NC(=O)[C@@H](N)[C@@H](C)O)C(C)C)C(=O)N[C@@H](CC(N)=O)C(=O)NCC(=O)N[C@@H](Cc1ccccc1)C(=O)N[C@@H](CS)C(=O)N[C@@H](CCCCN)C(=O)N[C@@H](CS)C(=O)N[C@H](C(=O)N[C@@H](CCCNC(=N)N)C(=O)O)C(C)C [NCR13-S] (H-TKPCQSDKDCKKFACRKPKVPKCINGFCKCVR-OH) | 6 | 4 | 3 | 1.5 | > 6 | >6 | 6 | 4 | – | – | – |
| CC(C)[C@H](NC(=O)[C@H](CS)NC(=O)[C@H](CCCCN)NC(=O)[C@H](CS)NC(=O)[C@H](Cc1ccccc1)NC(=O)CNC(=O)[C@H](CC(N)=O)NC(=O)[C@@H](NC(=O)[C@H](CS)NC(=O)[C@H](CC(N)=O)NC(=O)[C@@H]1CCCN1C(=O)[C@@H](NC(=O)[C@H](CCCCN)NC(=O)[C@@H]1CCCN1C(=O)[C@@H](NC(=O)[C@@H]1CCCN1C(=O)[C@H](CS)NC(=O)[C@H](CCCNC(=N)N)NC(=O)[C@H](Cc1ccc(O)cc1)NC(=O)[C@@H](NC(=O)[C@H](CCCCN)NC(=O)[C@H](CS)NC(=O)[C@H](Cc1c[nH]cn1)NC(=O)[C@H](CCCCN)NC(=O)[C@H](CCCNC(=N)N)NC(=O)[C@H](CO)NC(=O)[C@H](CCCCN)NC(=O)[C@H](CS)NC(=O)[C@@H]1CCCN1C(=O)[C@H](CCC(N)=O)NC(=O)[C@H](CCCCN)NC(=O)[C@@H](N)[C@@H](C)O)[C@@H](C)O)[C@@H](C)O)C(C)C)C(C)C)C(=O)N[C@@H](CCCNC(=N)N)C(=O)O [NCR15-S] (H-TKQPCKSRKHCKTYRCPTPKVPNCVNGFCKCVR-OH; N-terminus and C-terminus assumed) | 6 | 4 | 6 | 3 | > 6 | >6 | 6 | 3 | – | – | – |
| TKPCQSDKDCKKFACRKPKVPKCINGFCKCVR (listed as Cicer arietinum) [NCR13-P] | 3 | – | 3 | – | – | >6 | 4 | – | 2 to 3 | 1 | IC50 (Fusarium graminearum; read-out: Fusarium graminearum IC50): 2 µM; IC50 (Botrytis cinerea; read-out: Botrytis cinerea IC50): 1 µM; growth inhibition of P. capsici (in words) (Phytophthora capsici): inactive; IC50 (Phytophthora capsici; read-out: Phytophthora capsici IC50): > 6 µM; IC50 (Alternaria brassicicola; read-out: Alternaria brassicicola IC50): 2 µM |
| B1 | – | – | – | – | – | – | – | – | 0.3 | 0.1 | Fusarium graminearum MIC (Fusarium graminearum; in vitro growth inhibition): 1.5 µM; IC50 (Fusarium graminearum; read-out: Fusarium graminearum IC50, in vitro growth inhibition): 1 µM; antifungal activity against B. cinerea (in words) (Botrytis cinerea): significantly more active; Botrytis cinerea MIC (Botrytis cinerea; in vitro growth inhibition): 1.5 µM; IC50 (Botrytis cinerea; read-out: Botrytis cinerea IC50, in vitro growth inhibition): 0.75 µM; antifungal activity against F. oxysporum (in words) (Fusarium oxysporum): significantly more active |

— US12604903B2 (priority 2019, dated 2026)
